{
  "source": "paper PMC11971462",
  "about": "“Generation and validation of a novel multitarget small molecule in glioblastoma” (Cell Death & Disease, 2025)",
  "key": {"[1]": {"biological_target": "T1, recombinant hMAO-A (Homo sapiens, UniProt P21397)", "T1 construct": "purchased Sigma-Aldrich", "T1 sequence (P21397 whole entry)": "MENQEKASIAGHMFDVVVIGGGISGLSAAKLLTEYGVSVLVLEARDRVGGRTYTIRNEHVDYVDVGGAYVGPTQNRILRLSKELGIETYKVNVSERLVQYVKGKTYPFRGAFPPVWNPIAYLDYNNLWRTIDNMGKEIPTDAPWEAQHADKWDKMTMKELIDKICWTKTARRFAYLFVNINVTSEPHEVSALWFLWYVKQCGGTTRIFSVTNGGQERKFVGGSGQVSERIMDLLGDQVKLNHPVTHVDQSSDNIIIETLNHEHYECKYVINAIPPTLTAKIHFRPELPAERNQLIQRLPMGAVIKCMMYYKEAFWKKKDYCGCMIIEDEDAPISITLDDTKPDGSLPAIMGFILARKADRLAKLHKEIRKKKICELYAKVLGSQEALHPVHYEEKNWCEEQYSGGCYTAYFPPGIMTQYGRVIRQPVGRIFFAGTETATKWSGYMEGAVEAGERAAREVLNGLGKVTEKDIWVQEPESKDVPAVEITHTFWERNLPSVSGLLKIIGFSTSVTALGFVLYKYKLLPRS", "experiment": "MAO-A inhibition (Ampliflu Red/peroxidase, tyramine)", "format": "biochemical", "conditions": "10 µM compound; read-out: MAO-A inhibition percentage", "protocol": "(§1) The inhibitory capacity of DDI199 on HDACs was studied as previously described. The capacity of DDI199 to inhibit MAOs was studied by mimicking the reaction occurring in cells. Briefly, inhibitor solution containing 10 µM of DDI199 or reference compound was incubated for 30 minutes at 37 °C together with the enzyme solution, containing either recombinant hMAO-A (Sigma-Aldrich) at 0.5 U/mL or hMAO-B (Sigma-Aldrich) at 1.5 U/mL. 200 U/mL horseradish peroxidase (Sigma-Aldrich), 20 mM Ampliflu Red (Sigma-Aldrich) and 100 mM tyramine hydrochloride (Sigma-Aldrich) were then added and absorbance at 570 nm was measured every 5 minutes for 30 minutes. Percentage of inhibition was estimated from these values."}, "[2]": {"biological_target": "HDAC1 (Homo sapiens, UniProt Q13547)", "sequence (Q13547 whole entry)": "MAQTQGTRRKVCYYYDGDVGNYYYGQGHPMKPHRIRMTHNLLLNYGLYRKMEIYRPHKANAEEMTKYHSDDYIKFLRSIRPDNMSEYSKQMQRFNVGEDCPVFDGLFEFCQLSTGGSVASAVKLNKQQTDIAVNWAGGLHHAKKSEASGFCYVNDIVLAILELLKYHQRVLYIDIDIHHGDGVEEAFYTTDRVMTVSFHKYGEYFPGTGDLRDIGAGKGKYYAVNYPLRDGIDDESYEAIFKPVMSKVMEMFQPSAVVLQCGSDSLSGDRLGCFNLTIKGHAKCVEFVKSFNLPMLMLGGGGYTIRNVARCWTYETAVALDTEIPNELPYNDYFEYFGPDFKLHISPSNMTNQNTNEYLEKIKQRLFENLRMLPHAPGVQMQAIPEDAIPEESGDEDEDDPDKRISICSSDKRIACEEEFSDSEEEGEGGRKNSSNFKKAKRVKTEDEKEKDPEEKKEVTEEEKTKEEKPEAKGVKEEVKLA", "experiment": "HDAC1 enzyme inhibition", "format": "biochemical", "conditions": "read-out: HDAC inhibition IC50 HDAC1", "protocol": "as §1"}, "[3]": {"system": "U87-MG tumors", "experiment": "Immunohistochemistry of subcutaneous tumors", "format": "in vivo, athymic nude-Foxn1nu mice", "protocol": "Subcutaneous tumors were extracted, fixed with 4% formaldehyde for 48 h and embedded in paraffin. Tumor sections were obtained and stainings for acetyl H3 (9649, Cell Signaling), acetylated α-tubulin (ab179484, abcam), PCNA (Ab18197, abcam) and Cleaved Caspase 3 (AF835, R&D Systems) were performed. ZEISS Axioscan 7 slide scanner was used to capture images of the stainings and analyses were done using Qupath."}, "[4]": {"biological_target": "T2, recombinant hMAO-B (Homo sapiens, UniProt P27338)", "T2 construct": "purchased Sigma-Aldrich", "T2 sequence (P27338 whole entry)": "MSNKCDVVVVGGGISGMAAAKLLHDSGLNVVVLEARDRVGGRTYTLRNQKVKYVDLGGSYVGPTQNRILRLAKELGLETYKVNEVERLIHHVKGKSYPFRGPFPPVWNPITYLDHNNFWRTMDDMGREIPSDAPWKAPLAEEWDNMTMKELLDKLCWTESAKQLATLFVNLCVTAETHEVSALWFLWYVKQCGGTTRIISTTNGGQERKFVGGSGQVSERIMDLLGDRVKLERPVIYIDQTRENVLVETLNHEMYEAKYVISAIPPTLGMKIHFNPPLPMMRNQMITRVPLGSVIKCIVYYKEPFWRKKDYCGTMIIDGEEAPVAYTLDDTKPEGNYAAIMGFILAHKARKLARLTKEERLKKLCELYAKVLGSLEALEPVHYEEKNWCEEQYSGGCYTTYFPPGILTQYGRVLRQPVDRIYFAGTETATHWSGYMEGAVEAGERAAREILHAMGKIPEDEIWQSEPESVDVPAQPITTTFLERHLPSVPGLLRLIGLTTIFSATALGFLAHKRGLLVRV", "experiment": "biochemical", "protocol": "as §1"}, "[5]": {"system": "GNS166 cells", "experiment": "Cell cycle analysis by flow cytometry", "format": "cell-based, human", "conditions": "for Cell subpopulation in Sub G1: non-treated 1.9%; for Cell subpopulation in G2/M phase: non-treated 25%", "protocol": "Cells were harvested using accutase and washed with PBS. 1·10^6 cells were fixed with 70% cold ethanol at −20 °C for at least 24 h, and incubated with 0.5% Triton X-100 and 25 µg/mL RNase A in PBS for 30 min at room temperature. Then, DNA was stained with […] propidium iodide for 15 min and samples were analyzed using a CytoFLEX flow cytometer (Beckman Coulter Co.)."}},
  "note": "Values joined by “and” are separate entries in the source; they are usually repeats but may differ in a detail not shown here. Equal values may be shown once.",
  "data": [
    {"molecule": "C#CCN(Cc1cc2cc(OCCCN3CCCCC3)ccc2n1S(=O)(=O)c1ccccc1)C(=O)CCCCCCC(=O)NO", "note": "[DDI199]", "values": [
      {"measurement": "inhibition at 10 µM", "setting": "[1]", "result": 35, "unit": "%"},
      {"measurement": "IC50", "setting": "[2]", "result": "377 nM and 370 nM"},
      {"measurement": "acetyl H3 immunohistochemical staining", "setting": "[3]; tumors at day 34, 100 µM intratumoral", "result": 83, "unit": "%"},
      {"measurement": "acetyl α-tubulin immunohistochemical staining", "setting": "[3]; tumors at day 34, control 0.25", "result": 0.32},
      {"measurement": "Cleaved Caspase 3 positive cells", "setting": "[3]; tumors at day 34, control 0.7%", "result": 1.5, "unit": "%"},
      {"measurement": "PCNA positive cells", "setting": "[3]; tumors at day 34, control 70%", "result": 64, "unit": "%"},
      {"measurement": "inhibition at 10 µM", "setting": "[4]; 10 µM compound, read-out: MAO-B inhibition percentage", "result": 55, "unit": "%"},
      {"measurement": "IC50", "setting": "[4]; read-out: MAO-B IC50", "result": 14900, "unit": "nM"},
      {"measurement": "Cell subpopulation in Sub G1", "setting": "[5]; GNS166, 5 µM", "result": 7.2, "unit": "%"},
      {"measurement": "Cell subpopulation in G2/M phase", "setting": "[5]; GNS166, 5 µM", "result": 35, "unit": "%"},
      {"measurement": "Cell subpopulation in Sub G1", "setting": "[5]; GNS166, 10 µM", "result": 11.9, "unit": "%"},
      {"measurement": "Cell subpopulation in G2/M phase", "setting": "[5]; GNS166, 10 µM", "result": 32, "unit": "%"}
    ]}
  ]
}
